Reference: patent US20040266623A1, “SYNERGISTIC QUINCLORAC HERBICIDAL COMPOSITIONS” (priority 2003, published 2004)

What was measured:
Test in all cases: Greenhouse pot test, postemergent spray, visual control rating converted to percent control
Assay type in all cases: in vivo
[1] = system: crabgrass; conditions: for Control (1-9) Crabgrass: scale 1=no control, 9=death of plant
Description: (§1) Pots of crabgrass, dandelion, white clover, and plantain grown in greenhouse soiless growth media were sprayed with a greenhouse pot sprayer at 43.46 gallons of spray solution/acre and allowed to stand in the greenhouse. Visual observation of the effects made by the herbicidal compositions on the plants in the test pots was recorded for control of crabgrass, dandelion, clover and plantain at 24 hours after treatment (HAT), 48 hours after treatment (HAT), 72 hours after treatment (HAT), 7 days after treatment (DAT), 14 days after treatment (DAT) and 21 days after treatment (DAT). A control rating scale of 1 to 9 was used to record the visual observation of the effect of the herbicidal composition on the plants over the time period of the tests. 1=no control, and 9=death of plant, with intervening numbers representing successive degrees of observed effectiveness of the herbicidal composition over time. The 1-9 control rating scale was converted to percent control in the test data charts that follow.
(§2) The test protocol of S. R. Colby as set out in his article entitled “Calculating Synergistic and Antagonistic Responses of Herbicide Compositions,” received for publication Apr. 11, 1966, Contribution No. 3796 and Scientific Article No. 1271 of the Maryland Agricultural Experiment Station, Department pf Agronomy, University of Maryland was followed to evaluate the synergistic properties of the combination of quinclorac plus a herbicidal protox inhibitor, and a combination of quinclorac, plus a herbicidal protox inhibitor plus a herbicidal auxinic agent as compared with the individual herbicides, using Colby's formulas E=X+Y−XY/100 for a two herbicide combination, where E=the expected percent of inhibition of growth by herbicides, X=the percent inhibition of growth by herbicide A at p lb/A, and Y=the percent inhibition of growth by herbicide B at q lb/A, for a given combination of two herbicides. Colby's formula E=X+Y+Z−(XY+XZ+YZ)/100+XYZ/10,000, was used for the three-way herbicide combination evaluation, where E, X and Y are the same as in the two herbicide formula and Z=the percent inhibition of growth by the third herbicide.

[2] = system: white clover; conditions: for Control (1-9) Clover: scale 1=no control, 9=death of plant
Description: as §1, §2

[3] = system: plantain; conditions: for Control (1-9) Plantain: scale 1=no control, 9=death of plant
Description: as §1, §2

[4] = system: dandelion; conditions: for Control (1-9) Dandelion: scale 1=no control, 9=death of plant
Description: as §1, §2

Cc1nn(-c2cc(NS(C)(=O)=O)c(Cl)cc2Cl)c(=O)n1C(F)F [Sulfentrazone @ 0.03 lbs/A]
% Control Crabgrass ([1]; Test 3, 7 DAT): 55.6%
Control (1-9) Crabgrass ([1]; Test 3, 7 DAT): 5
% Control Crabgrass ([1]; Test 3, 14 DAT): 55.6%
Control (1-9) Crabgrass ([1]; Test 3, 14 DAT): 5
% Control Crabgrass ([1]; Test 3, 21 DAT): 44.4%
Control (1-9) Crabgrass ([1]; Test 3, 21 DAT): 4
% Control Crabgrass ([1]; Test 3, 24 HAT): 11.1%
Control (1-9) Crabgrass ([1]; Test 3, 24 HAT): 1
% Control Crabgrass ([1]; Test 3, 72 HAT): 44.4%
Control (1-9) Crabgrass ([1]; Test 3, 72 HAT): 4
% Control Clover ([2]; Test 3, 7 DAT): 44.4%
Control (1-9) Clover ([2]; Test 3, 7 DAT): 4
% Control Clover ([2]; Test 3, 14 DAT): 55.6%
Control (1-9) Clover ([2]; Test 3, 14 DAT): 5
% Control Clover ([2]; Test 3, 21 DAT): 55.6%
Control (1-9) Clover ([2]; Test 3, 21 DAT): 5
% Control Clover ([2]; Test 3, 24 HAT): 22.2%
Control (1-9) Clover ([2]; Test 3, 24 HAT): 2
% Control Clover ([2]; Test 3, 72 HAT): 33.3%
Control (1-9) Clover ([2]; Test 3, 72 HAT): 3
% Control Plantain ([3]; Test 3, 7 DAT): 88.9%
Control (1-9) Plantain ([3]; Test 3, 7 DAT): 8
% Control Plantain ([3]; Test 3, 14 DAT): 88.9%
Control (1-9) Plantain ([3]; Test 3, 14 DAT): 8
% Control Plantain ([3]; Test 3, 21 DAT): 100.0%
Control (1-9) Plantain ([3]; Test 3, 21 DAT): 9
% Control Plantain ([3]; Test 3, 24 HAT): 44.4%
Control (1-9) Plantain ([3]; Test 3, 24 HAT): 4
% Control Plantain ([3]; Test 3, 72 HAT): 66.7%
Control (1-9) Plantain ([3]; Test 3, 72 HAT): 6
% Control Dandelion ([4]; Test 3, 7 DAT): 66.7%
Control (1-9) Dandelion ([4]; Test 3, 7 DAT): 6
% Control Dandelion ([4]; Test 3, 14 DAT): 77.8%
Control (1-9) Dandelion ([4]; Test 3, 14 DAT): 7
% Control Dandelion ([4]; Test 3, 21 DAT): 77.8%
Control (1-9) Dandelion ([4]; Test 3, 21 DAT): 7
% Control Dandelion ([4]; Test 3, 24 HAT): 33.3%
Control (1-9) Dandelion ([4]; Test 3, 24 HAT): 3
% Control Dandelion ([4]; Test 3, 72 HAT): 55.6%
Control (1-9) Dandelion ([4]; Test 3, 72 HAT): 5

O=C(O)c1c(Cl)ccc2cc(Cl)cnc12 [Quinclorac @ 0.18 lbs/A]
% Control Crabgrass ([1]; Test 3, 7 DAT): 22.2%
Control (1-9) Crabgrass ([1]; Test 3, 7 DAT): 2
% Control Crabgrass ([1]; Test 3, 14 DAT): 33.3%
Control (1-9) Crabgrass ([1]; Test 3, 14 DAT): 3
% Control Crabgrass ([1]; Test 3, 21 DAT): 33.3%
Control (1-9) Crabgrass ([1]; Test 3, 21 DAT): 3
% Control Crabgrass ([1]; Test 3, 24 HAT): 11.1%
Control (1-9) Crabgrass ([1]; Test 3, 24 HAT): 1
% Control Crabgrass ([1]; Test 3, 72 HAT): 11.1%
Control (1-9) Crabgrass ([1]; Test 3, 72 HAT): 1
% Control Crabgrass ([1]; Test 4, 24 HAT): 11.1%
Control (1-9) Crabgrass ([1]; Test 4, 24 HAT): 1
% Control Crabgrass ([1]; Test 4, 72 HAT): 11.1%
Control (1-9) Crabgrass ([1]; Test 4, 72 HAT): 1
% Control Clover ([2]; Test 3, 7 DAT): 44.4%
Control (1-9) Clover ([2]; Test 3, 7 DAT): 4
% Control Clover ([2]; Test 3, 14 DAT): 44.4%
Control (1-9) Clover ([2]; Test 3, 14 DAT): 4
% Control Clover ([2]; Test 3, 21 DAT): 66.7%
Control (1-9) Clover ([2]; Test 3, 21 DAT): 6
% Control Clover ([2]; Test 3, 24 HAT): 11.1%
Control (1-9) Clover ([2]; Test 3, 24 HAT): 1
% Control Clover ([2]; Test 3, 72 HAT): 22.2%
Control (1-9) Clover ([2]; Test 3, 72 HAT): 2
% Control Clover ([2]; Test 4, 24 HAT): 11.1%
Control (1-9) Clover ([2]; Test 4, 24 HAT): 1
% Control Clover ([2]; Test 4, 72 HAT): 22.2%
Control (1-9) Clover ([2]; Test 4, 72 HAT): 2
% Control Plantain ([3]; Test 3, 7 DAT): 22.2%
Control (1-9) Plantain ([3]; Test 3, 7 DAT): 2
% Control Plantain ([3]; Test 3, 14 DAT): 33.3%
Control (1-9) Plantain ([3]; Test 3, 14 DAT): 3
% Control Plantain ([3]; Test 3, 21 DAT): 33.3%
Control (1-9) Plantain ([3]; Test 3, 21 DAT): 3
% Control Plantain ([3]; Test 3, 24 HAT): 11.1%
Control (1-9) Plantain ([3]; Test 3, 24 HAT): 1
% Control Plantain ([3]; Test 3, 72 HAT): 22.2%
Control (1-9) Plantain ([3]; Test 3, 72 HAT): 2
% Control Plantain ([3]; Test 4, 24 HAT): 11.1%
Control (1-9) Plantain ([3]; Test 4, 24 HAT): 1
% Control Plantain ([3]; Test 4, 72 HAT): 22.2%
Control (1-9) Plantain ([3]; Test 4, 72 HAT): 2
% Control Dandelion ([4]; Test 3, 7 DAT): 22.2%
Control (1-9) Dandelion ([4]; Test 3, 7 DAT): 2
% Control Dandelion ([4]; Test 3, 14 DAT): 33.3%
Control (1-9) Dandelion ([4]; Test 3, 14 DAT): 3
% Control Dandelion ([4]; Test 3, 21 DAT): 33.3%
Control (1-9) Dandelion ([4]; Test 3, 21 DAT): 3
% Control Dandelion ([4]; Test 3, 24 HAT): 11.1%
Control (1-9) Dandelion ([4]; Test 3, 24 HAT): 1
% Control Dandelion ([4]; Test 3, 72 HAT): 22.2%
Control (1-9) Dandelion ([4]; Test 3, 72 HAT): 2
% Control Dandelion ([4]; Test 4, 24 HAT): 11.1%
Control (1-9) Dandelion ([4]; Test 4, 24 HAT): 1
% Control Dandelion ([4]; Test 4, 72 HAT): 22.2%
Control (1-9) Dandelion ([4]; Test 4, 72 HAT): 2
